Test results published in PubChem BioAssay (NCI).
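The compound was tested at five concentrations on cells cultured in 96-well plates, with a 48-hour exposure period. GI50: concentration for 50% inhibition of growth. TGI: total growth inhibition.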

Experiments:
Assay in all cases: NCI anticancer screen, dose series, 48 h
[1] = test system: SNB-75 CNS
[2] = test system: TK-10 renal
[3] = test system: SR leukemia
[4] = test system: A549 NSCLC
[5] = test system: U251 CNS
[6] = test system: SW-620 colon
[7] = test system: UACC-257 melanoma
[8] = test system: A498 renal
[9] = test system: T-47D breast
[10] = test system: HCC-2998 colon
[11] = test system: SF-295 CNS
[12] = test system: M14 melanoma
[13] = test system: OVCAR-3 ovarian
[14] = test system: DU-145 prostate
[15] = test system: CAKI-1 renal
[16] = test system: MALME-3M melanoma
[17] = test system: SNB-19 CNS
[18] = test system: HT29 colon
[19] = test system: KM12 colon
[20] = test system: OVCAR-8 ovarian
[21] = test system: SK-MEL-28 melanoma
[22] = test system: LOX IMVI melanoma
[23] = test system: MDA-MB-435
[24] = test system: NCI-H23 lung
[25] = test system: RPMI-8226 leukemia
[26] = test system: UO-31 renal
[27] = test system: NCI-H226 lung
[28] = test system: K-562 leukemia
[29] = test system: MOLT-4 leukemia
[30] = test system: NCI-H522 lung
[31] = test system: HCT-15 colon
[32] = test system: HS 578T breast
[33] = test system: CCRF-CEM leukemia
[34] = test system: HOP-62 NSCLC
[35] = test system: PC-3 prostate
[36] = test system: OVCAR-4 ovarian
[37] = test system: SN12C renal
[38] = test system: EKVX NSCLC
[39] = test system: SF-539 CNS
[40] = test system: MDA-MB-231 breast
[41] = test system: SK-MEL-5 melanoma
[42] = test system: HL-60(TB) leukemia
[43] = test system: HOP-92 NSCLC
[44] = test system: SK-OV-3 ovarian
[45] = test system: RXF 393 renal
[46] = test system: NCI-H460 lung
[47] = test system: COLO 205 colon
[48] = test system: UACC-62 melanoma
[49] = test system: SF-268 CNS
[50] = test system: SK-MEL-2 melanoma
[51] = test system: BT-549 breast
[52] = test system: 786-0 renal
[53] = test system: IGROV1 ovarian
[54] = test system: ACHN renal
[55] = test system: NCI/ADR-RES ovarian
[56] = test system: HCT-116 colon
[57] = test system: OVCAR-5 ovarian
[58] = test system: MCF7 breast

Compound: NC(Cc1[nH]nc2ccccc12)C(=O)O (stereo not drawn)
- TGI [1]: > 100 µM
- TGI [2]: > 100 µM
- TGI [3]: > 100 µM
- TGI [4]: > 100 µM
- TGI [5]: > 100 µM
- TGI [6]: > 100 µM
- TGI [7]: > 100 µM
- TGI [8]: > 100 µM
- TGI [9]: > 100 µM
- TGI [10]: > 100 µM
- TGI [11]: > 100 µM
- TGI [12]: > 100 µM
- TGI [13]: > 100 µM
- TGI [14]: > 100 µM
- TGI [15]: > 100 µM
- TGI [16]: > 100 µM
- TGI [17]: > 100 µM
- TGI [18]: > 100 µM
- TGI [19]: > 100 µM
- TGI [20]: > 100 µM
- TGI [21]: > 100 µM
- TGI [22]: > 100 µM
- TGI [23]: > 100 µM
- TGI [24]: > 100 µM
- TGI [25]: > 100 µM
- TGI [26]: > 100 µM
- TGI [27]: > 100 µM
- TGI [28]: > 100 µM
- TGI [29]: > 100 µM
- TGI [30]: > 100 µM
- TGI [31]: > 100 µM
- TGI [32]: > 100 µM
- TGI [33]: > 100 µM
- TGI [34]: > 100 µM
- TGI [35]: > 100 µM
- TGI [36]: > 100 µM
- TGI [37]: > 100 µM
- TGI [38]: > 100 µM
- TGI [39]: > 100 µM
- TGI [40]: > 100 µM
- TGI [41]: > 100 µM
- TGI [42]: > 100 µM
- TGI [43]: > 100 µM
- TGI [44]: > 100 µM
- TGI [45]: > 100 µM
- TGI [46]: > 100 µM
- TGI [47]: > 100 µM
- TGI [48]: > 100 µM
- TGI [49]: > 100 µM
- TGI [50]: > 100 µM
- TGI [51]: > 100 µM
- TGI [52]: > 100 µM
- TGI [53]: > 100 µM
- TGI [54]: > 100 µM
- TGI [55]: > 100 µM
- TGI [56]: > 100 µM
- TGI [57]: > 100 µM
- TGI [58]: > 100 µM

Compound: COc1cc(/C=C2\CN(C)CC3=C2Nc2nc(SC)[nH]c(=O)c2C3c2cc(OC)c(OC)c(OC)c2)cc(OC)c1OC (stereo not drawn)
- GI50 [1]: 7.36 µM
- TGI [1]: 22.6 µM
- GI50 [2]: 6.06 µM
- TGI [2]: 18.9 µM
- GI50 [3]: 1.48 µM
- TGI [3]: > 100 µM
- GI50 [4]: 3.26 µM
- TGI [4]: 13.7 µM
- GI50 [5]: 1.76 µM
- TGI [5]: 4.14 µM
- GI50 [6]: 2 µM
- TGI [6]: 4.41 µM
- GI50 [7]: 2.24 µM
- TGI [7]: 7.63 µM
- GI50 [8]: 9.58 µM
- TGI [8]: 21.5 µM
- GI50 [9]: 3.69 µM
- TGI [9]: 22.6 µM
- GI50 [10]: 1.91 µM
- TGI [10]: 3.63 µM
- GI50 [11]: 2.24 µM
- TGI [11]: 5.47 µM
- GI50 [12]: 2.98 µM
- TGI [12]: 9.44 µM
- GI50 [13]: 2.64 µM
- TGI [13]: 6.72 µM
- GI50 [14]: 3.6 µM
- TGI [14]: 12.1 µM
- GI50 [15]: 2.15 µM
- TGI [15]: 4.71 µM
- GI50 [16]: 2.82 µM
- TGI [16]: 9.44 µM
- GI50 [17]: 8.65 µM
- TGI [17]: 21.9 µM
- GI50 [18]: 2.35 µM
- TGI [18]: 5.22 µM
- GI50 [19]: 1.7 µM
- TGI [19]: 3.21 µM
- GI50 [20]: 2.89 µM
- TGI [20]: > 100 µM
- GI50 [21]: 2.1 µM
- TGI [21]: 4.29 µM
- GI50 [22]: 1.66 µM
- TGI [22]: 3.94 µM
- GI50 [23]: 2.51 µM
- TGI [23]: 8.46 µM
- GI50 [24]: 3.54 µM
- TGI [24]: 15.8 µM
- GI50 [26]: 1.57 µM
- TGI [26]: 3.44 µM
- GI50 [27]: 6.17 µM
- TGI [27]: 22.2 µM
- GI50 [29]: 2.92 µM
- TGI [29]: 88 µM
- GI50 [30]: 2.04 µM
- TGI [30]: 4.69 µM
- GI50 [31]: 2.07 µM
- TGI [31]: 4.79 µM
- GI50 [32]: 8.88 µM
- TGI [32]: > 100 µM
- GI50 [34]: 2.46 µM
- TGI [34]: 7.09 µM
- GI50 [35]: 3.63 µM
- TGI [35]: 32.4 µM
- GI50 [36]: 4.99 µM
- TGI [36]: 21.2 µM
- GI50 [37]: 2.98 µM
- TGI [37]: 15.5 µM
- GI50 [38]: 8.44 µM
- TGI [38]: 66.4 µM
- GI50 [39]: 3.64 µM
- TGI [39]: 15.6 µM
- GI50 [40]: 3.14 µM
- TGI [40]: 13.1 µM
- GI50 [41]: 2.83 µM
- TGI [41]: 11.9 µM
- GI50 [42]: 2.26 µM
- TGI [42]: 9.66 µM
- GI50 [43]: 3.4 µM
- TGI [43]: 10.9 µM
- GI50 [44]: 3.07 µM
- TGI [44]: 12.5 µM
- GI50 [45]: 1.81 µM
- TGI [45]: 3.45 µM
- GI50 [46]: 2.3 µM
- TGI [46]: 5.4 µM
- GI50 [47]: 2.11 µM
- TGI [47]: 4.73 µM
- GI50 [48]: 2.06 µM
- TGI [48]: 5.11 µM
- GI50 [49]: 1.66 µM
- TGI [49]: 3.4 µM
- GI50 [50]: 9.92 µM
- TGI [50]: 33.3 µM
- GI50 [51]: 2.98 µM
- TGI [51]: 8.12 µM
- GI50 [52]: 4.01 µM
- TGI [52]: 16.9 µM
- GI50 [53]: 3.1 µM
- TGI [53]: 12.6 µM
- GI50 [54]: 1.93 µM
- TGI [54]: 3.55 µM
- GI50 [55]: 3.6 µM
- TGI [55]: > 100 µM
- GI50 [56]: 1.66 µM
- TGI [56]: 3.17 µM
- GI50 [57]: 4.83 µM
- TGI [57]: 16.7 µM
- GI50 [58]: 4.98 µM
- TGI [58]: 18.3 µM
